Test results as given in patent publication US10934310B2, “Inhibitors of Bruton's tyrosine kinase and method of their use” (JANSSEN PHARMACEUTICA NV, priority 2015, dated 2021).

molecular target: unphosphorylated-BTK kinase domain (UP-BTK), GST-tagged human BTK (389-659aa) (Homo sapiens (Human), UniProt Q06187); assay: BTK Kinase Lanthascreen Binding Assay; conditions: Lanthascreen binding, 60 minutes incubation; pIC50 = negative log of the IC50 in molar
Experimental: BTK Kinase Lanthascreen Binding Assay:
A BTK kinase lanthascreen binding assay monitors compound binding to unphosphorylated-BTK kinase domain (UP-BTK), by competing with a fluorescent labeled tracer. […] Data were analyzed using Xlfit™ version 5.3 from ID Business Solutions (Guildford), Microsoft Excel add-in. pIC50 refers to the negative log of the IC50 in molar.

Sequence of unphosphorylated-BTK kinase domain (UP-BTK), GST-tagged human BTK (389-659aa) (Q06187 389-659): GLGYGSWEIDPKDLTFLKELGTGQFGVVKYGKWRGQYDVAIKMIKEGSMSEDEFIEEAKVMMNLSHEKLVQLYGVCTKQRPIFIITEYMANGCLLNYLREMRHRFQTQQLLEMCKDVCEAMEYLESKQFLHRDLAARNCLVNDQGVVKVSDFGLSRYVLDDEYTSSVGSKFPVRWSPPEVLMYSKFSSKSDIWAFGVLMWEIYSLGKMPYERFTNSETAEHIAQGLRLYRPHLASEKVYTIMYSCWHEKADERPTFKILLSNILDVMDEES

BTK_I_binding pIC50 | SMILES
6.60 | C=CC(=O)N[C@@H]1CCC[C@@H](NC(=O)c2sc3nccc4c3c2NC(=O)N4c2cnc(Oc3ccccc3)cc2C)C1 (single isomer, unassigned) [Example 332, N-((1*R,3*R)-3-Acrylamidocyclohexyl)-5-(*S)-(4-methyl-6-phenoxypyridin-3-yl)-4-oxo-4,5-dihydro-3H-1-thia-3,5,8-triazaacenaphthylene-2-carboxamide]
6.74 | O=C(N[C@@H]1CCC[C@H]1O)c1sc2nccc3c2c1NC(=O)N3c1ccc(Oc2ccccc2)cc1 [Example 393, N-((1R,2R)-2-Hydroxycyclopentyl)-4-oxo-5-(4-phenoxyphenyl)-4,5-dihydro-3H-1-thia-3,5,8-triazaacenaphthylene-2-carboxamide]
6.69 | C=CC(=O)N[C@H]1CCC[C@H]1NC(=O)c1sc2nccc3c2c1NC(=O)N3c1cnc(NC(C)C)cc1C [Example 330, N-((1R,2S)-2-Acrylamidocyclopentyl)-5-(6-(isopropylamino)-4-methylpyridin-3-yl)-4-oxo-4,5-dihydro-3H-1-thia-3,5,8-triazaacenaphthylene-2-carboxamide]
6.51 | Cc1cc(Oc2ccccc2)ccc1N1C(=O)Nc2c(C(=O)N[C@H]3CCCC[C@H]3NC(=O)CN(C)C)sc3nccc1c23 (single isomer, unassigned) [Example 449, N-((1S,2R)-2-(2-(Dimethylamino)acetamido)cyclohexyl)-5-(*S)-(2-methyl-4-phenoxyphenyl)-4-oxo-4,5-dihydro-3H-1-thia-3,5,8-triazaacenaphthylene-2-carboxamide]
6.31 | C=CC(=O)N[C@H]1CCC[C@@H](NC(=O)c2sc3nccc4c3c2NC(=O)N4c2cnc(Oc3ccccc3)cc2C)C1 (single isomer, unassigned) [Example 363, N-((1R,3S)-3-Acrylamidocyclohexyl)-5-(*S)-(4-methyl-6-phenoxypyridin-3-yl)-4-oxo-4,5-dihydro-3H-1-thia-3,5,8-triazaacenaphthylene-2-carboxamide]
6.98 | C=CC(=O)N[C@@H]1CCC[C@H]1NC(=O)c1sc2nccc3c2c1NC(=O)N3c1cccc(-c2ccccn2)c1 [Example 327, N-((1R,2R)-2-Acrylamidocyclopentyl)-4-oxo-5-(3-(pyridin-2-yl)phenyl)-4,5-dihydro-3H-1-thia-3,5,8-triazaacenaphthylene-2-carboxamide]
6.58 | C=CC(=O)N[C@H]1CC[C@@H](NC(=O)c2sc3nccc4c3c2NC(=O)N4c2ccc(Oc3ccccc3)cn2)C1 (single isomer, unassigned) [Example 328, N-((1*R,3*S)-3-Acrylamidocyclopentyl)-4-oxo-5-(5-phenoxypyridin-2-yl)-4,5-dihydro-3H-1-thia-3,5,8-triazaacenaphthylene-2-carboxamide]

SMILES | BTK_I_binding pIC50
C=CC(=O)N[C@H]1CCCC[C@H]1NC(=O)c1sc2nccc3c2c1NC(=O)N3c1cnc(Oc2ccccc2)cn1 [Example 295, N-((1R,2S)-2-Acrylamidocyclohexyl)-4-oxo-5-(5-phenoxypyrazin-2-yl)-4,5-dihydro-3H-1-thia-3,5,8-triazaacenaphthylene-2-carboxamide] | 8.39

same assay, conditions: compound, 50 nM Tracer 236, 2 nM anti-GST antibody, 60 minutes; pIC50 = negative log of the IC50 in molar

SMILES | BTK_I_binding pIC50
Cc1cc(Oc2ccccc2)ccc1N1C(=O)Nc2c(C(=O)N[C@H]3CC[C@@H](N(C)C)CC3)sc3nccc1c23 [Example 99, N-((1S,4S)-4-(Dimethylamino)cyclohexyl)-5-(*S)-(2-methyl-4-phenoxyphenyl)-4-oxo-4,5-dihydro-3H-1-thia-3,5,8-triazaacenaphthylene-2-carboxamide] | 7.03
Cc1cc(Oc2ccccc2)ccc1N1C(=O)Nc2c(C(=O)N[C@H]3CC[C@@H](N(C)C)CC3)sc3nccc1c23 [Example 100, N-((1S,4S)-4-(Dimethylamino)cyclohexyl)-5-(*R)-(2-methyl-4-phenoxyphenyl)-4-oxo-4,5-dihydro-3H-1-thia-3,5,8-triazaacenaphthylene-2-carboxamide] | 5.86
C=CC(=O)N[C@H]1CCC[C@@H]1NC(=O)c1sc2nccc3c2c1NC(=O)N3c1ccc(Oc2ccccc2)cc1C (single isomer, unassigned) [Example 116, N-((1S,2S)-2-Acrylamidocyclopentyl)-5-(*S)-(2-methyl-4-phenoxyphenyl)-4-oxo-4,5-dihydro-3H-1-thia-3,5,8-triazaacenaphthylene-2-carboxamide] | 7.30
CNCC(=O)N[C@H]1CCC[C@@H]1NC(=O)c1sc2nccc3c2c1NC(=O)N3c1ccc(Oc2ccccc2)cc1C (single isomer, unassigned) [Example 133, 5-(*S)-(2-Methyl-4-phenoxyphenyl)-N-((1S,2S)-2-(2-(methylamino)acetamido)cyclopentyl)-4-oxo-4,5-dihydro-3H-1-thia-3,5,8-triazaacenaphthylene-2-carboxamide] | 7.13
CNCC(=O)N[C@@H]1CC[C@H](NC(=O)c2sc3nccc4c3c2NC(=O)N4c2ccc(Oc3ccccc3)cc2C)C1 (single isomer, unassigned) [Example 103, 5-(*S)-(2-Methyl-4-phenoxyphenyl)-N-((1S,3R)-3-(2-(methylamino)acetamido)cyclopentyl)-4-oxo-4,5-dihydro-3H-1-thia-3,5,8-triazaacenaphthylene-2-carboxamide] | 7.40
CCC(=O)N[C@@H]1CCC[C@@H]1NC(=O)c1sc2nccc3c2c1NC(=O)N3c1ccc(Oc2ccccc2)cc1C [Example 59, 5-(2-Methyl-4-phenoxyphenyl)-4-oxo-N-((1S,2R)-2-propionamidocyclopentyl)-4,5-dihydro-3H-1-thia-3,5,8-triazaacenaphthylene-2-carboxamide] | 5.46
Cc1cc(Oc2ccccc2)ccc1N1C(=O)Nc2c(C(=O)N[C@H]3CCC[C@H]3NC(=O)CN(C)C)sc3nccc1c23 (single isomer, unassigned) [Example 155, N-((1S,2R)-2-(2-(Dimethylamino)acetamido)cyclopentyl)-5-(*S)-(2-methyl-4-phenoxyphenyl)-4-oxo-4,5-dihydro-3H-1-thia-3,5,8-triazaacenaphthylene-2-carboxamide] | 6.35
C=CC(=O)N[C@H]1CCC[C@H]1NC(=O)c1sc2nccc3c2c1NC(=O)N3c1ccc(Oc2ccccc2)cc1C (single isomer, unassigned) [Example 107, N-((1R,2S)-2-Acrylamidocyclopentyl)-5-(*S)-(2-methyl-4-phenoxyphenyl)-4-oxo-4,5-dihydro-3H-1-thia-3,5,8-triazaacenaphthylene-2-carboxamide] | 8.25
C=CC(=O)NC1CCC[C@@H](NC(=O)c2sc3nccc4c3c2NC(=O)N4c2ccc(Oc3ccccc3)cc2C)C1 (stereo in doubt) [Example 2, N-((1R,3S)-3-Acrylamidocyclohexyl)-5-(2-methyl-4-phenoxyphenyl)-4-oxo-4,5-dihydro-3H-1-thia-3,5,8-triazaacenaphthylene-2-carboxamide] | 7.36
O=C(N[C@H]1CCC[C@H](O)C1)c1sc2nccc3c2c1NC(=O)N3c1ccc(Oc2ccccc2)cc1 [Example 143, N-((1S,3S)-3-Hydroxycyclohexyl)-4-oxo-5-(4-phenoxyphenyl)-4,5-dihydro-3H-1-thia-3,5,8-triazaacenaphthylene-2-carboxamide] | 6.75
CCC(=O)N[C@H]1CCCC[C@H]1NC(=O)c1sc2nccc3c2c1NC(=O)N3c1ccc(Oc2ccccc2)cc1C [Example 35, 5-(2-Methyl-4-phenoxyphenyl)-4-oxo-N-((1R,2S)-2-propionamidocyclohexyl)-4,5-dihydro-3H-1-thia-3,5,8-triazaacenaphthylene-2-carboxamide] | 6.87

Other lines, results leading:

BTK_I_binding pIC50 | SMILES
7.46 | C=CC(=O)N[C@H]1CCC[C@H]1NC(=O)c1sc2nccc3c2c1NC(=O)N3c1ccc(Oc2ncccn2)cc1C [Example 224, N-((1R,2S)-2-acrylamidocyclopentyl)-5-(2-methyl-4-(pyrimidin-2-yloxy)phenyl)-4-oxo-4,5-dihydro-3H-1-thia-3,5,8-triazaacenaphthylene-2-carboxamide]
6.85 | CC(=O)N[C@H]1CCC[C@H](NC(=O)c2sc3nccc4c3c2NC(=O)N4c2ccc(Oc3ccccc3)cc2C)C1 (single isomer, unassigned) [Example 243, N-((1S,3S)-3-Acetamidocyclohexyl)-5-(*S)-(2-methyl-4-phenoxyphenyl)-4-oxo-4,5-dihydro-3H-1-thia-3,5,8-triazaacenaphthylene-2-carboxamide]
7.62 | C=CC(=O)N[C@@H]1CC[C@H](NC(=O)c2sc3nccc4c3c2NC(=O)N4c2ccc(OC(C)C)cc2C)C1 (single isomer, unassigned) [Example 186, N-((1S,3R)-3-Acrylamidocyclopentyl)-5-(*R)-(4-isopropoxy-2-methylphenyl)-4-oxo-4,5-dihydro-3H-1-thia-3,5,8-triazaacenaphthylene-2-carboxamide]
6.66 | Cc1cc(Oc2ccccc2)ccc1N1C(=O)Nc2c(C(=O)N[C@H]3CCC[C@H](N)C3)sc3nccc1c23 (single isomer, unassigned) [Example 247, N-((1S,3S)-3-Aminocyclohexyl)-5-(*S)-(2-methyl-4-phenoxyphenyl)-4-oxo-4,5-dihydro-3H-1-thia-3,5,8-triazaacenaphthylene-2-carboxamide]

same assay, conditions: read-out: BTK_I_binding pIC50 (converted)

IC50 [nM] | SMILES
> 1000 | CNCC(=O)N[C@@H]1CC[C@H](NC(=O)c2sc3nccc4c3c2NC(=O)N4c2ccc(OC(C)C)cc2C)C1 [Example 161, 5-(4-Isopropoxy-2-methylphenyl)-N-((1S,3R)-3-(2-(methylamino)acetamido)cyclopentyl)-4-oxo-4,5-dihydro-3H-1-thia-3,5,8-triazaacenaphthylene-2-carboxamide]
